What all share (assay type): physicochemical
The nature of data set [1]: Storage stability of diluted dihydrocapsiate emulsion with added emulsifier DECAGLYN 1-O (HPLC capsinoid content). How it is done:
A dihydrocapsiate emulsion composition was prepared according to the method described in Example 1 of JP Patent Kokai Publication No. JP-P2003-192576A. Briefly, decaglycerin monooleate (Nikko Chemical Co.; trade name, DECAGLYN 1-O) (21 g), glycerin (193 g) and water (26 g) were mixed, dissolved under heating at 90-95° C., and cooled to 30° C. Synthetic dihydrocapsiate (8.5 g) and sucrose acetate isobutyrate (SAIB) (51 g) were added and dissolved under heating at 85-90° C., and the mixture was emulsified at 30-90° C. to prepare a capsinoid-containing emulsion composition (pH 3.6). The resulting emulsion composition was diluted with up to 1000 parts of 0.01M citrate buffer (pH 3.5) supplemented with sucrose to obtain an additive-free sample. On the other hand, the composition was diluted with up to 1000 parts of 0.01M citrate buffer (pH 3.5) supplemented with sucrose to which was added 0.014%, 0.114% emulsifier (Nikko Chemical Co.; DECAGLYN 1-0) respectively, to prepare emulsion-supplemented samples. The resulting samples were sterilized by heating for 20 minutes at 44° C. and stored.
Every one week after storage, the capsinoid content was determined. Analysis of the capsinoid content was performed by high performance liquid chromatography (HPLC) after dilution with an ethyl acetate/methanol (6:4) mixture.

Data set [2] is described as follows: Storage stability of diluted dihydrocapsiate emulsion with a variety of emulsifiers added. Particulars: 8 emulsifiers of Table 1 other than DECAGLYN 1-O, each at 0.114% in 0.01M citrate buffer (pH 3.5) with sucrose; 1000 parts dilution; FIG. 2. The method, then:
In the same manner as in Example 1, a dihydrocapsiate containing emulsion composition was diluted with up to 1000 parts of 0.01M citrate buffer (pH 3.5) supplemented with sucrose and the stability of storage was evaluated. Prior to addition of the dihydrocapsiate containing emulsion composition 8 types of emulsifiers were added to 0.01M citrate buffer (pH 3.5) supplemented with sucrose so as to be 0.114%, and the difference of the stability as a function of the emulsifier added was evaluated.

The nature of data set [3]: Storage stability of dihydrocapsiate emulsion mixed with emulsifier in advance or diluted with emulsifier-containing buffer. Particulars: stored at 24° C. and 44° C. The method, then:
Into a capsinoid emulsion composition prepared in Example 1 an emulsifier (Nikko Chemical Co., Decaglyn 1-O) was blended at a ratio of 10 to 3 under heating (50-70° C.) to prepare a composition. The resulting composition was diluted with up to 230 parts of 0.01M citrate buffer (pH 3.5) supplemented with sucrose to prepare a mixture of the emulsion composition and the emulsifier. On the other hand, an additive-free sample prepared by diluting the capsinoid emulsion composition (prepared in Example 1) with up to 300 parts of the same buffer was diluted with up to 300 parts of 0.01M citrate buffer (pH 3.5) supplemented with sucrose to which was added an emulsifier (Nikko Chemical Co., DECAGLYN 1-0) in advance at a rate of 0.10%, to prepare a sample containing an emulsifier. In either sample, the content of capsinoid after dilution with the buffer correspond to 0.33% of the initial amount of capsinoid existing in the emulsion composition. Thus prepared samples were sterilized under heat for 20 minutes and stored at 24° C. and 44° C.
In periodical sampling, the content of capsinoid was determined. The content of capsinoid was analyzed by high performance liquid chromatography (HPLC) after dilution with a mixture of ethyl acetate and methanol (6:4).

Data set [4] is described as follows: Storage stability of diluted dihydrocapsiate emulsion with a variety of high molecular weight components added. The note with it: 500 parts dilution, FIG. 3. How it is done: In the same manner as in Example 2, a dihydrocapsiate containing emulsion composition was diluted with up to 500 parts of 0.01M citrate buffer (pH 3.5) supplemented with sucrose and the stability of storage was evaluated. Prior to addition of the dihydrocapsiate containing emulsion composition 8 types of high molecular weight components were added to 0.01M citrate buffer (pH 3.5) supplemented with sucrose, and the difference of the stability as a function of the high molecular weight components added was evaluated. […] In regard to the amount of high molecular weight component to be added, xanthan gum was reduced to 0.1% because it gives high viscosity in a small quantity. The amount of other high molecular weight components added than xanthan gum was fixed at 0.5%.

Some results are limits rather than exact numbers.

Consider dihydrocapsiate, for which the “storage stability of dihydrocapsiate” value in data set [1] (emulsion composition diluted up to 1000 parts with 0.01M citrate buffer (pH 3.5) with sucrose, 0.014% or 0.114% DECAGLYN 1-O added vs additive-free, FIG. 1) is reported as “increased with increase of the amount of emulsifier added”.
As for `COc1cc(COC(=O)CCCCCCC(C)C)ccc1O` [dihydrocapsiate], the “stability of dihydrocapsiate during storage” value in data set [2] is “improve the stability”. The “storage stability of dihydrocapsiate” value was “improves the storage stability” in data set [3] (FIG. 4A: emulsion composition diluted up to 300 parts with buffer to which 0.10% DECAGLYN 1-O was previously added); “improves the storage stability” in data set [3] (FIG. 4B: emulsion composition pre-blended with Decaglyn 1-O (10 to 3), diluted up to 230 parts with buffer containing no emulsifier); “Improvement of the storage stability” in data set [4] (HM pectin 0.5% in 0.01M citrate buffer (pH 3.5) with sucrose); “Improvement of the storage stability” in data set [4] (carboxymethylcellulose sodium (CMC sodium) 0.5% in 0.01M citrate buffer (pH 3.5) with sucrose); “Improvement of the storage stability” in data set [4] (carrageenan 0.5% in 0.01M citrate buffer (pH 3.5) with sucrose). In data set [1] (0.114% emulsifier (DECAGLYN 1-O) added, about one month after storage, citrate buffer pH 3.5), the “rate of residual dihydrocapsiate relative to emulsifier-free case” value is at least 2 times.
